One assay has as its target T1, HPSE (Homo sapiens, UniProt Q9Y251).
T1 sequence (Q9Y251 36-109 limits assumed): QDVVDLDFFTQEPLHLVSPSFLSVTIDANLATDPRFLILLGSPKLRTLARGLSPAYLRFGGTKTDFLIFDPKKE
T1 sequence (Q9Y251 158-543 limits assumed): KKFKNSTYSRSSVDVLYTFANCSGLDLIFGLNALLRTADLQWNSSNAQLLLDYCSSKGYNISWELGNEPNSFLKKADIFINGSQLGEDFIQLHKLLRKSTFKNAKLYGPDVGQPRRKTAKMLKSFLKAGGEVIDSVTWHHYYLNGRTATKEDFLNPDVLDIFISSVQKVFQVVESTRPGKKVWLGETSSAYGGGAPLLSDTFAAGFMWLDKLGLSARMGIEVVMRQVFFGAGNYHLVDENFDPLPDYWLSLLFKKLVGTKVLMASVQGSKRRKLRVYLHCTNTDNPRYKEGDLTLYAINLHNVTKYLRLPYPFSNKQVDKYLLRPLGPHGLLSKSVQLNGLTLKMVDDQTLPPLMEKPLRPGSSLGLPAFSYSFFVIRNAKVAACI
The experiment in a line: X-ray crystallography, ligand soaking of HPSE crystals. As to conditions: crystal soaking. From the text:
Xray diffraction data were collected at 100 K at beamlines i03 (HPSE-2, HPSE-3, HPSE-4, EcGUSB-1, BpHep-3), i04 (AcGH79-2, BpHep-2) and i04-1 (Apo-AcGH79, AcGH79-1, AcGH79-3) of the Diamond Light Source UK. Reflections were autoprocessed using the XIA2 pipeline. Complexes were solved by directly refining against their unliganded structures where isomorphous, or else solved by molecular replacement with PHASER (search model PDB accessions: 5E98 (HPSE), 3VNY (AcGH79), 3K46 (EcGUSB), 5BWI (BpHep)). […] Ligand coordinates were built using jLigand. Diagrams were generated using PyMOL.
HPSE—Well diffracting crystals of HPSE were obtained by the sitting-drop vapor-diffusion method at 20° C. using a well solution containing 0.1 M MES pH 5.5, 0.1 M MgCl2, 17% (w/v) PEG 3350, and a protein to well solution ratio of 200 nl:500 nl. Crystals typically appeared after 1 week. Inhibitor ligand complexes were obtained by transferring HPSE crystals to drops of well solution supplemented with 25% (v/v) ethylene glycol and 1-5 mM inhibitor. Crystals were incubated with ligand for ˜2-4 h, then directly harvested and flash-cooled in LN2 for data collection.
To better understand the molecular basis of interaction between our inhibitors and their targets, we turned to X-ray crystallography, using ligand soaking to derivatize enzymes in crystallo.

The target of the next assay is T2, HPSE (platelet) (Homo sapiens, UniProt Q9Y251).
T2 construct: endogenous in cells; host or cells: human platelet lysates
T2 sequence (Q9Y251 158-543 limits assumed): T1 sequence (Q9Y251 158-543 limits assumed)
T2 sequence (Q9Y251 36-109 limits assumed): T1 sequence (Q9Y251 36-109 limits assumed)
The experiment in a line: cABPP Assay 2, platelet lysates, HPSE. The assay is classed as biochemical. On the procedure:
For further competitive ABPP studies, a working protein mixture was prepared by mixing the platelet lysates (87.5 μL), buffer (pH 5.0, 150 mM, 157.5 μL) and 3 M NaCl solution (35 μL). The enzymatic reactions were carried out at a constant concentration of read-out 7 (100 nM, final). For each inhibitor 2, 12 and 13, triplicate sets of ten 0.5 mL low protein binding Eppendorf tubes were prepared. Working solutions of each inhibitor (1% DMSO (w/v), 5 μL) in a range of ten concentrations (100, 50, 25, 12.5, 6.3, 3.1, 1.6, 0.8, 0.4, 0 μM) were prepared with MilliQ water and kept on ice. The working protein mixture (8 μL) was added in each protein low binding 0.5 mL Eppendorf tube, and 1 μL of inhibitor solution was added while on ice.
Further cABPP studies were undertaken using platelet lysates to provide a more physiologically realistic environment. Platelet lysates contain complex mixtures of overlapping enzyme activities, including both endo- and exo-β-glucuronidases HPSE and GUSB respectively, thus provide a challenging environment to test inhibitor specificity.

Results on one compound are retold here after patent publication US20250276993A1, “PSEUDO-DISACCHARIDE COMPOUNDS” (UNIVERSITEIT LEIDEN, priority 2022, published 2025).

SMILES strings stand for the structures.

As to `CC(=O)NC1C(O)[C@H](O)C(CO)O[C@@H]1O[C@H]1C(O)C(O)[C@@H]2OC2C1C(=O)O` (stereo partly drawn) [Compound 2, 4-O-(2-N-acetyl-2-deoxy-D-glucopyranosyl)-glucurono-cyclophellitol], the “binding mode in HPSE active site cleft” value on HPSE was “covalent linkages between their pseudo-anomeric carbons and the enzyme nucleophile Glu343”. For the same compound, at HPSE (platelet) (apparent IC50, in-gel competitive ABPP-based assay, platelet lysate, read-out: In vitro IC50 HPSE (platelet)), the IC50 amounted to 900 ± 300 nM. The “inhibitor concentration down to which HPSE signal is abrogated” value against HPSE (platelet) (platelet lysates, preincubation with inhibitor) stood at 2.5 µM.

One may read the IC50 as the concentration at which inhibition is half-maximal.
